From patent US20140235643A1, “NOVEL QUINOXALINE INHIBITORS OF PI3K” (GILEAD CALISTOGA LLC, priority 2011, published 2014)

Columns and labels:
PI3Kγ = target: T1, PI3Kγ (Mus musculus, UniProt Q9JHG7); test: PI3Kγ-dependent cell-based assay: C5a-mediated AKT phosphorylation in RAW-264 cells; set-up: species or system murine; details: C5a-induced AKT phosphorylation, RAW-264 macrophages
T1 construct: endogenous in cells; host or cells: RAW-264 macrophage cells (ATCC)
Protocol: PDGF-BB-induced AKT phosphorylation in Swiss-3T3 fibroblasts is mediated by p110α. C5a-induced AKT phosphorylation in RAW-264 murine macrophages is mediated exclusively by p110γ.
PI3Kγ-Dependent Cell-Based Assay: C5a-Mediated AKT Phosphorylation in RAW-264 Cells
RAW-264 macrophage cells (American Type Culture Collection) were cultured with Dulbecco's modified Eagle medium (DMEM) containing 10% fetal bovine serum and the antibiotics penicillin and streptomycin. Cells were seeded on a 96-well Tissue Culture Plate at 100,000 to 200,000 cells/well the day before the experiment. Next day, cells were starved for 2 hr in 0.1% FBS containing medium. The cells were pretreated with inhibitors or DMSO for 2 hr and stimulated for 5 min with 75 ng/ml C5a (R&D) at 37° C. in 5% CO2. The culture medium was removed and cells were fixed for 20 min at room temperature by addition of 100 μl of 4% cell fixing buffer to each well. AKT phosphorylation and total AKT was detected by ELISA.
Detection of Phospho-Ser-473 AKT and Total AKT by ELISA
The fixed cells were washed twice with 150 μl of wash buffer (WB) and quenched by incubating with 100 μl of Quenching Buffer for 20 min at room temperature. Cells were washed once with 150 μl WB and blocked by incubating with 100 μl of Blocking Buffer for 1 hr at room temperature. Cells were incubated with 50 μl of primary antibody diluted in Blocking Buffer, either phospho-Ser-473 AKT specific (1:150 dilution) or total-AKT antibody (1:200 dilution), to each specific well. The negative control wells contained 50 μl of Blocking Buffer. Plates were sealed with plate sealing film and incubated overnight at 4° C. Cells were washed twice with 150 μl WB followed by addition of 50 μl per well of DELFIA secondary antibody (50 ng/well, diluted in DELFIA Assay Buffer). After 2 hr incubation at room temperature, cells were washed 4 times with 150 μl of Europium Wash Solution followed by addition of 100 μl of DELFIA Enhancing Solution to each well. Plates were incubated for 5 min in the dark and fluorescent signal was read using SpectraMax M5™ (Molecular Devices). Total AKT level was determined to verify equal cell number per well. The average background fluorescence values from wells that received vehicle control in the absence of PDGF-BB or C5a were subtracted from all the values of experimental conditions. Fluorescence values corresponding to phosphorylated AKT from wells that received PDGF-BB or C5a were normalized to 100% and compound effect was plotted as % change relative to the vehicle control.

PI3Kγ (p110 gamma) = target: T2, PI3Kγ (p110 gamma) (Homo sapiens, UniProt P48736); test: PI3K biochemical enzyme assay (Adapta universal kinase assay), p110 gamma; details: for IC50: Table 2, PI3k biochemical assays, read-out: p120γ IC50
T2 construct: purchased Invitrogen
Protocol: This example describes a method of obtaining in vitro activity data concerning the effect of compounds of on various PI3K isoforms. The effect of compounds on the kinase activity of Class I PI3Ks was measured at Invitrogen by using the Adapta® universal kinase assay. It was a homogenous, fluorescent based immunoassay for the detection of ADP produced by the kinase reaction. This assay can be divided into two phases: a kinase reaction phase, and an ADP detection phase. In the kinase reaction phase, all components required for the kinase reaction were added to the well, and the reaction was allowed to incubate for 60 minutes. After the reaction, a detection solution consisting of a europium labeled anti-ADP antibody, an Alexa Fluor® 647 labeled ADP tracer, and EDTA (to stop the kinase reaction) was added to the assay well. ADP formed by the kinase reaction (in the absence of an inhibitor) displaced the Alexa Fluor® 647 labeled ADP tracer from the antibody, resulting in a decrease in the TR-FRET signal.
ADP formation was determined by calculating the emission ratio from the assay well. The emission ratio was calculated by dividing the intensity of the tracer (acceptor) emission by the intensity of the Eu (donor) emission at 615 nm as shown in the equation below.
The Test Compounds were screened in 1% DMSO (final) in the well. All Substrate/Kinase Mixtures were diluted to a 2× working concentration in the appropriate Kinase Buffer as described below for the individual kinase:
The 2× p110 gamma/PIP2:PS mixture was prepared in 50 mM HEPES pH 7.5, 1 mM EGTA, 3 mM mgCl2. The final […] Kinase Reaction consisted of 3.5-26 ng p110 gamma and 50 μM PIP2:PS in 32.5 mM HEPES pH 7.5, 0.5 mM EGTA, 1.5 mM mgCl2. After the 1 hour Kinase Reaction incubation, 5 μL of Detection Mix was added.
The Detection mix consisted of EDTA (30 mM), Eu-anti-ADP antibody (30 nM) and ADP tracer. All ATP Solutions were diluted to a 4× working concentration in water and used at the Km apparent concentrations for each individual kinase.

T1 sequence (Q9JHG7 whole entry): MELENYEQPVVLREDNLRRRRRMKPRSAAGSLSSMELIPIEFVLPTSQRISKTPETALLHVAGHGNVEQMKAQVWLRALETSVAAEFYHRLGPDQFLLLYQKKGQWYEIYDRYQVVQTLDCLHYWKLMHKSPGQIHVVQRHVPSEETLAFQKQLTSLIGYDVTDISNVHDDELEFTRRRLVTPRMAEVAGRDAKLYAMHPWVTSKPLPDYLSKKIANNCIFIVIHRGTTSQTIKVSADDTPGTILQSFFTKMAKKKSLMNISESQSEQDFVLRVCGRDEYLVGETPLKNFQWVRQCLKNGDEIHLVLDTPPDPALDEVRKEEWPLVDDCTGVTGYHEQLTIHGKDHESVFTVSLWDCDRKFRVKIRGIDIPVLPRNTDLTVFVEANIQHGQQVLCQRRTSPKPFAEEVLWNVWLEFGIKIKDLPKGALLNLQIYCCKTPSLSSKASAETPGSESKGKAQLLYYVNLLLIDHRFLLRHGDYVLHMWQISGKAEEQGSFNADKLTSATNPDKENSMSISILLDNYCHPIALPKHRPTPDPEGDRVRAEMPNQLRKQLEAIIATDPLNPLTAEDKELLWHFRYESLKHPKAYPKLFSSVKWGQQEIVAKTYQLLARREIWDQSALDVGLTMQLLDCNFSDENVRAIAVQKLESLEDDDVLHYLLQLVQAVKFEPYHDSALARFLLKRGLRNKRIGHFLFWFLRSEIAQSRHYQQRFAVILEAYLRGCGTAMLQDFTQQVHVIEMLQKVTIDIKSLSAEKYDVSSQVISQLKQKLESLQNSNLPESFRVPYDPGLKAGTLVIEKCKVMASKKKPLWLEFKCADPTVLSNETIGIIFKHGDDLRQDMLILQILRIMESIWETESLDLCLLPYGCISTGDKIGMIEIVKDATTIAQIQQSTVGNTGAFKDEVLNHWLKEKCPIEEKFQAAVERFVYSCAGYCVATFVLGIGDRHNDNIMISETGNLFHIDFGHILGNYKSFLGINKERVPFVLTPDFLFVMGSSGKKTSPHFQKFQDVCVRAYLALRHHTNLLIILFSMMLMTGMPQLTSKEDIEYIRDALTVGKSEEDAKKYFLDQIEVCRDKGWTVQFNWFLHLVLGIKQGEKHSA
T2 sequence (P48736 whole entry): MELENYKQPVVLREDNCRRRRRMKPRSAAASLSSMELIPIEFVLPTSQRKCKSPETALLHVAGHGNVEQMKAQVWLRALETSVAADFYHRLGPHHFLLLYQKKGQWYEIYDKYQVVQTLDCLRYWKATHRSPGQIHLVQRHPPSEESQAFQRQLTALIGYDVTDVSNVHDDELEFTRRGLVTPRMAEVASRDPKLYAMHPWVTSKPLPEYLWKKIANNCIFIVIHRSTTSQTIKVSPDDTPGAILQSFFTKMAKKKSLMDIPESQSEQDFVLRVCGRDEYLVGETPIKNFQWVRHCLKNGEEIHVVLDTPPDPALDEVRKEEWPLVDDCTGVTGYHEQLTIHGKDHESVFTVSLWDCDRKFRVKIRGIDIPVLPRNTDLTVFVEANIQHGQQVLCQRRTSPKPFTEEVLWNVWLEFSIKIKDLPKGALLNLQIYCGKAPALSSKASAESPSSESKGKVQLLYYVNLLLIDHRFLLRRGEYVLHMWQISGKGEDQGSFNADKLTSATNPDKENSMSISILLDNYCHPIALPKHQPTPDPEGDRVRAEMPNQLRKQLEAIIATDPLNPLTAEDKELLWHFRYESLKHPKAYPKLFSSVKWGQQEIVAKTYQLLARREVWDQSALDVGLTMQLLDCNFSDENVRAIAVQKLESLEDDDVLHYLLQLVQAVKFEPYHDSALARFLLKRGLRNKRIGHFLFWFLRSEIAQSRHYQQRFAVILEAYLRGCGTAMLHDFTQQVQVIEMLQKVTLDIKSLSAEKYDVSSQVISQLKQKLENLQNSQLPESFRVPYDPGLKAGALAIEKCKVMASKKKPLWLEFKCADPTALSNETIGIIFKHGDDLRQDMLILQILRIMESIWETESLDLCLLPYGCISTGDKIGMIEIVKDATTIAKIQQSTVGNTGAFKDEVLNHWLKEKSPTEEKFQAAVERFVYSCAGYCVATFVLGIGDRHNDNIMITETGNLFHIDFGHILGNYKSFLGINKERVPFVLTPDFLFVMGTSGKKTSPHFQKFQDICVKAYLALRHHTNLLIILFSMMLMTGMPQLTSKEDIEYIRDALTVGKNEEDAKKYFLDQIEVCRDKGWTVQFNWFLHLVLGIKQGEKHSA

| EC50 (PI3Kγ) [nM] | inhibition at 1 µM (PI3Kγ (p110 gamma); read-out: PI3Kγ % inhib) [%] | inhibition at 10 µM (PI3Kγ (p110 gamma); read-out: PI3Kγ % inhib) [%] | IC50 (PI3Kγ (p110 gamma)) [nM] | inhibition at 0.1 µM (PI3Kγ (p110 gamma); 0.1 μM, read-out: PI3Kγ % inhib) [%] | SMILES |
| --- | --- | --- | --- | --- | --- |
| 4620 | 78 | 99 | 147 | – | CC(Nc1ncnc2[nH]cnc12)c1nc2ccccc2nc1-c1ccccc1 (centres unmarked) [Compound Q1] |
| > 20000 | 42 | 86 | 5790 | – | CC(Nc1ncnc2[nH]cnc12)c1nc2ccccc2nc1-c1cc(F)cc(F)c1 (centres unmarked) [Compound Q2, N-{1-[3-(3,5-difluorophenyl)quinoxalin-2-yl]ethyl}-9H-purin-6-amine] |
| > 20000 | 51 | 94 | 2070 | – | Cc1cccc(-c2nc3ccccc3nc2C(C)Nc2ncnc3[nH]cnc23)c1 (centres unmarked) [Compound Q3] |
| 344 | 84 | 99 | 8 | 36 | Cc1cccc2nc(C(C)Nc3nc(N)nc4[nH]cnc34)c(-c3ccccc3)nc12 (centres unmarked) [Compound Q4] |
| 628 | 79 | 98 | 2 | – | Cc1cccc2nc(C(C)Nc3nc(N)nc4[nH]cnc34)c(-c3ccc(F)cc3)nc12 (centres unmarked) [Compound Q5] |
| > 20000 | 37 | 95 | 2150 | – | CCC(Nc1ncnc2[nH]cnc12)c1nc2cccc(F)c2nc1-c1ccccc1 (centres unmarked) [Compound Q9] |
| > 20000 | 44 | 96 | 762 | – | CCC(Nc1ncnc2[nH]cnc12)c1nc2ccccc2nc1-c1ccccc1 (centres unmarked) [Compound Q12] |
